Source: patent US7947717B2 (priority 2008, dated 2011)
Read-outs that look alike come from different tables or passages of the source.

What was measured:
lethal factor (LF) = lethal factor (LF) (Bacillus anthracis, UniProt P15917); assay: biochemical; assay type: biochemical
BoNT A = BoNT A (Clostridium botulinum, UniProt P0DPI0); assay: biochemical
MMP-2 = target: T1, MMP-2 (Homo sapiens, UniProt P08253); assay: MMP-2 assay (Anaspec kit); assay type: biochemical
T1 construct: purchased Anaspec, Inc. 71151/71155
T1 sequence (P08253 110-660): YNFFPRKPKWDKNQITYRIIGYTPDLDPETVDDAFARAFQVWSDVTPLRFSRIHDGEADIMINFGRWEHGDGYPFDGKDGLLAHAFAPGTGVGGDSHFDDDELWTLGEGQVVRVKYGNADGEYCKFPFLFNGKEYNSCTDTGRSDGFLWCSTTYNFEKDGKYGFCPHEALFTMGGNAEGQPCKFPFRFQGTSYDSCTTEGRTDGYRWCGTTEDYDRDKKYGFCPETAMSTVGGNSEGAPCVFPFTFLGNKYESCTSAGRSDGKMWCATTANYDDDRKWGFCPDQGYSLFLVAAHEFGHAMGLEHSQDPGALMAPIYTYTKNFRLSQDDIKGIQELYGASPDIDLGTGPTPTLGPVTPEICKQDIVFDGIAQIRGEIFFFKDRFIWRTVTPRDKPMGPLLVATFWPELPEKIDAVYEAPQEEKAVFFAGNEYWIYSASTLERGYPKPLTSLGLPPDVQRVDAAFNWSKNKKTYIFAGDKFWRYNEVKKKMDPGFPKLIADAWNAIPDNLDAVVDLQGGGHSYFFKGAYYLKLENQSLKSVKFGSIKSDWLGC

MMP-9 = target: T2, MMP-9 (Homo sapiens, UniProt P14780); assay: MMP-9 assay (Anaspec kit); assay type: biochemical
T2 construct: purchased Anaspec, Inc. 71151/71155
T2 sequence (P14780 107-707 limits assumed): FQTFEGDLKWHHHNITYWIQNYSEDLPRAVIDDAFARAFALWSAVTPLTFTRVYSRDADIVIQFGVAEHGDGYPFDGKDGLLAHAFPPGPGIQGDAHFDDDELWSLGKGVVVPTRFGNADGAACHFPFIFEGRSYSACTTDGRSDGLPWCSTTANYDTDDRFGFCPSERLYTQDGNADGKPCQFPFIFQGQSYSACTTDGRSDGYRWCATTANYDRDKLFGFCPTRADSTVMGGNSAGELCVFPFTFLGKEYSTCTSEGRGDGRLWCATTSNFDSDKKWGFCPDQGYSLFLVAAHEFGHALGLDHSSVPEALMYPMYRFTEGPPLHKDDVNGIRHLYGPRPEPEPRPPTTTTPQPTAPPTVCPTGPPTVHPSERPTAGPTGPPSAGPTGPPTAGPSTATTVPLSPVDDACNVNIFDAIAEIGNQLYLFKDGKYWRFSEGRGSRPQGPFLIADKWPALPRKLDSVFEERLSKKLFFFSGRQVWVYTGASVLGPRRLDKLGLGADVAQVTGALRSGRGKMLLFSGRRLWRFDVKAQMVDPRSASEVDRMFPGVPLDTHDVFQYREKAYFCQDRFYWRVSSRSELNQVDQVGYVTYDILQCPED

Sequence of BoNT A (P0DPI0 whole entry, looked up): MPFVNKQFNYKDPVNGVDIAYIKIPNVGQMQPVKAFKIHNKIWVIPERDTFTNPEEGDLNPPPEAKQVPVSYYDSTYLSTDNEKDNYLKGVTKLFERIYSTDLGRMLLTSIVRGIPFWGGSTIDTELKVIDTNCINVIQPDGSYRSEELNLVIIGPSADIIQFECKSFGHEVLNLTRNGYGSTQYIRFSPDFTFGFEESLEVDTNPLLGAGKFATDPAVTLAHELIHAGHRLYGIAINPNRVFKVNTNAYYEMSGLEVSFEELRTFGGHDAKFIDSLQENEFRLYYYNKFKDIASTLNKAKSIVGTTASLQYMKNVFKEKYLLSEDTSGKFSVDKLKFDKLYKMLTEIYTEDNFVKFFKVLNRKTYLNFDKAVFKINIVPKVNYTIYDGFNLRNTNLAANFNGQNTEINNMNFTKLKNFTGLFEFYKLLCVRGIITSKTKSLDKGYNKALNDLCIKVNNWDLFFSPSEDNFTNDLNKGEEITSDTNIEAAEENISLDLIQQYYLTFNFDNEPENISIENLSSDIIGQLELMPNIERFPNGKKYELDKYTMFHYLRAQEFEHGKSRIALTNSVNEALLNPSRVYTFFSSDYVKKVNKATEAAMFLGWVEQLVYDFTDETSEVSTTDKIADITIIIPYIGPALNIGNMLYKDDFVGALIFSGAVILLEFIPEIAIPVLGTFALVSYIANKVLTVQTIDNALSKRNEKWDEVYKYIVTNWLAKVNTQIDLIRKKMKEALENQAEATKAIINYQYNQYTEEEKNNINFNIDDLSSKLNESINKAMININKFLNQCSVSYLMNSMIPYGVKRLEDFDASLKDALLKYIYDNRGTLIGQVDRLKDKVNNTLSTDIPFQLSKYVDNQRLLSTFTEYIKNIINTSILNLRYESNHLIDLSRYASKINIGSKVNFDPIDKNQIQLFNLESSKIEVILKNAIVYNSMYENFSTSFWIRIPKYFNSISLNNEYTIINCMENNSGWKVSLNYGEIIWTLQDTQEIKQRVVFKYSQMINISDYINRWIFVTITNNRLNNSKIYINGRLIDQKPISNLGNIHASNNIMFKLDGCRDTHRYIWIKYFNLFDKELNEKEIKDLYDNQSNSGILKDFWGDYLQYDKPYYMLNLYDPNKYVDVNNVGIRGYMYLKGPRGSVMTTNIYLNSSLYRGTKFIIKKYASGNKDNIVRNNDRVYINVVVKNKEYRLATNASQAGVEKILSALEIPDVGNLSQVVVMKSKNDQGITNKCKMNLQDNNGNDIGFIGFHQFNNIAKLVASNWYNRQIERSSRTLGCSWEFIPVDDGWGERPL
Sequence of lethal factor (LF) (P15917 34-809 limits assumed): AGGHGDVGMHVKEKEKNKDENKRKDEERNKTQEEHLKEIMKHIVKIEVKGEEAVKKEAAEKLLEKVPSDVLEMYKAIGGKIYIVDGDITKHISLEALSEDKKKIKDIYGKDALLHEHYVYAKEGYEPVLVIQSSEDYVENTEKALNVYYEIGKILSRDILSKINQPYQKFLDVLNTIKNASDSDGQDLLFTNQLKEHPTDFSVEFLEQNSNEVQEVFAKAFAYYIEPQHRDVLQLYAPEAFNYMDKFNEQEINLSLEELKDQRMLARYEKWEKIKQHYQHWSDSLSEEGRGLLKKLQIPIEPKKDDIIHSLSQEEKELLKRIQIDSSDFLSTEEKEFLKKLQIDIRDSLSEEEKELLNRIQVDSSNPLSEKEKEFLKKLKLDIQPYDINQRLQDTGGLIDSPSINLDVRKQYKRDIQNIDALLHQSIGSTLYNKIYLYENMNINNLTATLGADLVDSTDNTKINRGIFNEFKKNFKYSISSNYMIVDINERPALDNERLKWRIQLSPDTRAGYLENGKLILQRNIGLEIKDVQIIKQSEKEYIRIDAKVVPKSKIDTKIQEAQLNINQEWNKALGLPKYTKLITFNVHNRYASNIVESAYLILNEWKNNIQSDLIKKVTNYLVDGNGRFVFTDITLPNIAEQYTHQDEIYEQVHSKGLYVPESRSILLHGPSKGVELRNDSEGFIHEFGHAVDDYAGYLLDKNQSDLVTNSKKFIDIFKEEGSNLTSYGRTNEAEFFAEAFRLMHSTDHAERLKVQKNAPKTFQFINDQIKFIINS

| Compound | IC50 (lethal factor (LF); pH 7.4, read-out: LF IC50) [µM] | IC50 (BoNT A) [µM] | IC50 (MMP-2; read-out: MMP2 IC50) [µM] | IC50 (MMP-9; read-out: MMP9 IC50) [µM] | IC50 (lethal factor (LF)) [µM] | IC50 (MMP-2) [µM] | IC50 (MMP-9) [µM] | inhibition of MMP-2 (in words) (MMP-2) | inhibition of MMP-9 (in words) (MMP-9) |
| --- | --- | --- | --- | --- | --- | --- | --- | --- | --- |
| O=C(O)CN1C(=O)/C(=C/c2ccc(N3CCOCC3)s2)SC1=S [Compound 48, (Z)-2-(5-((5-morpholinothiophen-2-yl)methylene)-4-oxo-2-thioxothiazolidin-3-yl)acetic acid] | 32.5 | 112 | 47.1 | 64.9 | – | – | – | – | – |
| O=C(O)CN1C(=O)C(=Cc2cc(-c3ccccc3)on2)SC1=S [Compound 21, 2-(4-oxo-2-thioxo-5-((5-phenylisoxazol-3-yl)methylene)thiazolidin-3-yl)acetic acid] | – | > 200 | – | – | 18.7 | > 100 | 50 | – | – |
| O=C(O)CN1C(=O)/C(=C/c2cc(-c3ccco3)on2)SC1=S [Compound 20, (Z)-2-(5-((5-(furan-2-yl)isoxazol-3-yl)methylene)-4-oxo-2-thioxothiazolidin-3-yl)acetic acid] | 17 | > 200 | 39.4 | – | – | – | – | – | – |
| O=C(O)CN1C(=O)/C(=C/c2sc(Br)c3c2OCCO3)SC1=S [Compound 47, (Z)-2-(5-((7-bromo-2,3-dihydrothieno[3,4-b][1,4]dioxin-5-yl)methylene)4-oxo-2-thioxothiazolidin-3-yl)acetic acid] | 11.4 | > 200 | 50.6 | – | – | – | – | – | – |
| O=C(O)CN1C(=O)/C(=C/c2cn(-c3ccc(F)cc3)nc2-c2ccc(F)cc2)SC1=S [Compound 33, (Z)-2-(5-((1,3-bis(4-fluorophenyl)-1H-pyrazol-4-yl)methylene)-4-oxo-2-thioxothiazolidin-3-yl)acetic acid] | 4.22 | 52.6 | – | – | – | 39.4 | – | – | – |
| O=C(O)CN1C(=O)/C(=C/c2csc3ccc(Br)cc23)SC1=S [Compound 58, (Z)-2-(5-((5-bromobenzo[b]thiophen-3-yl)methylene)-4-oxo-2-thioxothiazolidin-3-yl)acetic acid] | 10.4 | 74.3 | 46.9 | 64.9 | – | – | – | – | – |
| O=C(O)CN1C(=O)/C(=C/c2cn(-c3ccc(Br)cc3)nc2-c2ccc(Br)cc2)SC1=S [Compound 35, (Z)-2-(5-((1,3-bis(4-bromophenyl)-1H-pyrazol-4-yl)methylene)-4-oxo-2-thioxothiazolidin-3-yl)acetic acid] | 3.35 | 5.45 | – | – | – | – | – | did not inhibit | did not inhibit |
| COc1ccc(-c2cc(C=C3SC(=S)N(CC(=O)O)C3=O)no2)cc1 [Compound 23, 2-(5-((5-(4-methoxyphenyl)isoxazol-3-yl)methylene)-4-oxo-2-thioxothiazolidin-3-yl)acetic acid] | – | 194 | – | – | – | 6.62 | > 100 | – | – |
| O=C(O)CN1C(=O)C(=Cc2cc(-c3ccc(Cl)cc3)on2)SC1=S [Compound 24, 2-(5-((5-(4-chlorophenyl)isoxazol-3-yl)methylene)-4-oxo-2-thioxothiazolidin-3-yl)acetic acid] | – | 82.7 | – | – | – | 19.2 | > 100 | – | – |
| O=C1/C(=C/c2cn(-c3ccccc3)nc2-c2ccc(Cl)cc2)SC(=S)N1CCS(=O)(=O)O [Compound 41, (Z)-2-(5-((3-(4-chlorophenyl)-1-phenyl-1H-pyrazol-4-yl)methylene)-4-oxo-2-thioxothiazolidin-3-yl)ethanesulfonic acid] | 3.66 | > 200 | – | – | – | 26.9 | – | – | – |
| Cc1ccc2cc(/C=C3\SC(=S)N(CC(=O)O)C3=O)ccc2n1 [Compound 54, (Z)-2-(5-((2-methylquinolin-6-yl)methylene)-4-oxo-2-thioxothiazolidin-3-yl)acetic acid] | 5.25 | > 200 | 18 | – | – | – | – | – | – |
| O=C(O)CN1C(=O)/C(=C/c2cn(-c3ccc(F)cc3F)nc2-c2cccnc2)SC1=S [Compound 32, (Z)-2-(5-((1-(2,4-difluorophenyl)-3-(pyridin-3-yl)-1H-pyrazol-4-yl)methylene)-4-oxo-2-thioxothiazolidin-3-yl)acetic acid] | 2.99 | 71.5 | – | – | – | 13.7 | – | – | – |
